# Counter-ions that a name gives are not always drawn.
row,melting point,Structure (SMILES)
1,256 to 258 °C,"Cc1nc2cccc(NC(=O)CN(C)C)c2c(=O)n1C1CCC(=O)NC1=O (centres unmarked) (as salt: chloride) [Example 6.25, 2-Dimethylamino-N-[3-(2,6-Dioxo-Piperidin-3-yl)-2-Methyl-4-Oxo-3,4-Dihydro-Quinazolin-5-yl]-Acetamide Hydrogen Chloride]"
2,275 to 277 °C,"Cc1nc2cccc(NC(=O)CCl)c2c(=O)n1C1CCC(=O)NC1=O (centres unmarked) [Example 6.26, 2-Chloro-N-[3-(2,6-Dioxo-Piperidin-3-yl)-2-Methyl-4-Oxo-3,4-Dihydro-Quinazolin-5-yl]-Acetamide]"
3,284 to 286 °C (dec.),"CCOC(=O)Nc1cccc2nc(C)n(C3CCC(=O)NC3=O)c(=O)c12 (centres unmarked) [Example 6.27, [3-(2,6-Dioxo-Piperidin-3-yl)-2-Methyl-4-Oxo-3,4-Dihydro-Quinazolin-5-yl]-Carbamic Acid Ethyl Ester]"
4,206 to 208 °C,"Cc1nc2cccc(CNC(=O)OC(C)(C)C)c2c(=O)n1C1CCC(=O)NC1=O (centres unmarked) [Example 6.28, [3-(2,6-Dioxo-Piperidin-3-yl)-2-Methyl-4-Oxo-3,4-Dihydro-Quinazolin-5-ylmethyl]-Carbamic Acid Tert-Butyl Ester]"
5,250 to 252 °C,"CCCC(=O)NCc1cccc2nc(C)n(C3CCC(=O)NC3=O)c(=O)c12 (centres unmarked) [Example 6.31, N-[3-(2,6-Dioxo-Piperidin-3-yl)-2-Methyl-4-Oxo-3,4-Dihydro-Quinazolin-5-ylmethyl]-Butyramide]"
6,208 to 210 °C,"CCCCCCC(=O)NCc1cccc2nc(C)n(C3CCC(=O)NC3=O)c(=O)c12 (centres unmarked) [Example 6.32, Heptanoic Acid [3-(2,6-Dioxo-Piperidin-3-yl)-2-Methyl-4-Oxo-3,4-Dihydro-Quinazolin-5-ylmethyl]-Amide]"
7,212 to 214 °C,"Cc1nc2cccc(CNC(=O)CC(C)(C)C)c2c(=O)n1C1CCC(=O)NC1=O (centres unmarked) [Example 6.33, N-[3-(2,6-Dioxo-Piperidin-3-yl)-2-Methyl-4-Oxo-3,4-Dihydro-Quinazolin-5-ylmethyl]-3,3-Dimethyl-Butyramide]"
8,275 °C (dec.),"Cc1nc2cccc(CNC(=O)CN(C)C)c2c(=O)n1C1CCC(=O)NC1=O (centres unmarked) [Example 6.35, 2-Dimethylamino-N-[3-(2,6-Dioxo-Piperidin-3-yl)-2-Methyl-4-Oxo-3,4-Dihydro-Quinazolin-5-ylmethyl]-Acetamide]"
9,326 to 328 °C,"Cc1nc2cccc(NC(=O)c3cccc(Cl)c3)c2c(=O)n1C1CCC(=O)NC1=O (centres unmarked) [Example 6.36, 3-Chloro-N-[3-(2,6-Dioxo-Piperidin-3-yl)-2-Methyl-4-Oxo-3,4-Dihydro-Quinazolin-5-yl]-Benzamide]"
10,275 to 277 °C,"Cc1nc2cccc(CNC(=O)Cc3ccccc3)c2c(=O)n1C1CCC(=O)NC1=O (centres unmarked) [Example 6.38, N-[3-(2,6-Dioxo-Piperidin-3-yl)-2-Methyl-4-Oxo-3,4-Dihydro-Quinazolin-5-ylmethyl]-2-Phenyl-Acetamide]"
11,261 to 263 °C,"Cc1nc2cccc(CNC(=O)c3ccccn3)c2c(=O)n1C1CCC(=O)NC1=O (centres unmarked) [Example 6.39, Pyridine-2-Carboxylic Acid [3-(2,6-Dioxo-Piperidin-3-yl)-2-Methyl-4-Oxo-3,4-Dihydro-Quinazolin-5-ylmethyl]-Amide]"
12,285 °C (dec.),"Cc1nc2cccc(CNC(=O)Cc3ccc(Cl)cc3)c2c(=O)n1C1CCC(=O)NC1=O (centres unmarked) [Example 6.40, 2-(4-Chloro-Phenyl)-N-[3-(2,6-Dioxo-Piperidin-3-yl)-2-Methyl-4-Oxo-3,4-Dihydro-Quinazolin-5-ylmethyl]-Acetamide]"
13,262 to 264 °C,"Cc1nc2cccc(CNC(=O)Cc3ccc(Cl)c(Cl)c3)c2c(=O)n1C1CCC(=O)NC1=O (centres unmarked) [Example 6.42, 2-(3,4-Dichloro-Phenyl)-N-[3-(2,6-Dioxo-Piperidin-3-yl)-2-Methyl-4-Oxo-3,4-Dihydro-Quinazolin-5-ylmethyl]-Acetamide]"
14,264 to 266 °C,"Cc1ccc(CC(=O)NCc2cccc3nc(C)n(C4CCC(=O)NC4=O)c(=O)c23)cc1F (centres unmarked) [Example 6.44, N-[3-(2,6-Dioxo-Piperidin-3-yl)-2-Methyl-4-Oxo-3,4-Dihydro-Quinazolin-5-ylmethyl]-2-(3-Fluoro-4-Methyl-Phenyl)-Acetamide]"
15,199 to 201 °C,"Cc1nc2cccc(CNC(=O)Cc3ccc(C(F)(F)F)cc3)c2c(=O)n1C1CCC(=O)NC1=O (centres unmarked) [Example 6.45, N-[3-(2,6-Dioxo-Piperidin-3-yl)-2-Methyl-4-Oxo-3,4-Dihydro-Quinazolin-5-ylmethyl]-2-(4-Trifluoromethyl-Phenyl)-Acetamide]"
16,255 to 257 °C,"Cc1nc2cccc(CNC(=O)Nc3ccc(Cl)cc3)c2c(=O)n1C1CCC(=O)NC1=O (centres unmarked) [Example 6.46, 1-(4-Chloro-Phenyl)-3-[3-(2,6-Dioxo-Piperidin-3-yl)-2-Methyl-4-Oxo-3,4-Dihydro-Quinazolin-5-ylmethyl]-Urea]"
17,250 to 252 °C,"Cc1ccc(NC(=O)NCc2cccc3nc(C)n(C4CCC(=O)NC4=O)c(=O)c23)cc1Cl (centres unmarked) [Example 6.47, 1-(3-Chloro-4-Methyl-Phenyl)-3-[3-(2,6-Dioxo-Piperidin-3-yl)-2-Methyl-4-Oxo-3,4-Dihydro-Quinazolin-5-ylmethyl]-Urea]"
18,241 to 243 °C,"Cc1ccc(NC(=O)NCc2cccc3nc(C)n(C4CCC(=O)NC4=O)c(=O)c23)cc1C (centres unmarked) [Example 6.48, 1-(3,4-Dimethyl-Phenyl)-3-[3-(2,6-Dioxo-Piperidin-3-yl)-2-Methyl-4-Oxo-3,4-Dihydro-Quinazolin-5-ylmethyl]-Urea]"
19,263 to 265 °C,"Cc1cccc(C(=O)NCc2cccc3nc(C)n(C4CCC(=O)NC4=O)c(=O)c23)c1 (centres unmarked) [Example 6.50, N-[3-(2,6-Dioxo-Piperidin-3-yl)-2-Methyl-4-Oxo-3,4-Dihydro-Quinazolin-5-ylmethyl]-3-Methyl-Benzamide]"
20,276 to 278 °C,"Cc1nc2cccc(CNC(=O)c3ccc(Cl)cc3)c2c(=O)n1C1CCC(=O)NC1=O (centres unmarked) [Example 6.51, 4-Chloro-N-[3-(2,6-Dioxo-Piperidin-3-yl)-2-Methyl-4-Oxo-3,4-Dihydro-Quinazolin-5-ylmethyl]-Benzamide]"

# More lines, now with the values behind:
row,Structure (SMILES),melting point
1,Cc1nc2cccc(CN)c2c(=O)n1C1CCC(=O)NC1=O.Cl (centres unmarked),256 °C (dec.)
2,"Cc1cccc2ncn(C3CCC(=O)NC3=O)c(=O)c12 (centres unmarked) [Example 6.1, 3-(5-Methyl-4-Oxo-4H-Quinazolin-3-yl)-Piperidine-2,6-Dione]",262 to 264 °C
3,"Cc1cccc2nc(C)n(C3CCC(=O)NC3=O)c(=O)c12 (centres unmarked) [Example 6.2, 3-(2,5-Dimethyl-4-Oxo-4H-Quinazolin-3-yl)-Piperidine-2,6-Dione]",292 to 294 °C
4,"Cc1cccc2nc(O)n(C3CCC(=O)NC3=O)c(=O)c12 (centres unmarked) [Example 6.5, 3-(2-Hydroxy-5-Methyl-4-Oxo-4H-Quinazolin-3-yl)-Piperidine-2,6-Dione]",373 to 375 °C
5,"Cc1cccc2nc(C)n([C@@]3(C)CCC(=O)NC3=O)c(=O)c12 [Example 6.7, 3R-3-(2,5-Dimethyl-4-Oxo-4H-Quinazolin-3-yl)-3-Methyl-Piperidine-2,6-Dione]",298 to 301 °C
6,"COc1cccc2nc(C)n(C3CCC(=O)NC3=O)c(=O)c12 (centres unmarked) [Example 6.8, 3-(5-Methoxy-2-Methyl-4-Oxo-4H-Quinazolin-3-yl)-Piperidine-2,6-Dione]",274 to 276 °C
7,"Cc1nc2cccc(Cl)c2c(=O)n1C1CCC(=O)NC1=O (centres unmarked) [Example 6.10, 3-(5-Chloro-2-Methyl-4-Oxo-4H-Quinazolin-3-yl)-Piperidine-2,6-Dione]",315 °C (dec.)
8,"Cc1nc2cccc(C(F)(F)F)c2c(=O)n1C1CCC(=O)NC1=O (centres unmarked) [Example 6.11, 3-(2-Methyl-4-Oxo-5-Trifluoromethyl-4H-Quinazolin-3-yl)-Piperidine-2,6-Dione]",268 to 270 °C
9,"O=C1CCC(n2cnc3cccc(Cl)c3c2=O)C(=O)N1 (centres unmarked) [Example 6.12, 3-(5-Chloro-4-Oxo-4H-Quinazolin-3-yl)-Piperidine-2,6-Dione]",308 to 310 °C
10,"CCc1nc2cccc(C)c2c(=O)n1C1CCC(=O)NC1=O (centres unmarked) [Example 6.13, 3-(2-Ethyl-5-Methyl-4-Oxo-4H-Quinazolin-3-yl)-Piperidine-2,6-Dione]",228 to 230 °C
11,"CCCCc1nc2cccc(C)c2c(=O)n1C1CCC(=O)NC1=O (centres unmarked) [Example 6.14, 3-(2-Butyl-5-Methyl-4-Oxo-4H-Quinazolin-3-yl)-Piperidine-2,6-Dione]",190 to 192 °C
12,"Cc1cccc2nc(C(F)(F)F)n(C3CCC(=O)NC3=O)c(=O)c12 (centres unmarked) [Example 6.15, 3-(5-Methyl-4-Oxo-2-Trifluoromethyl-4H-Quinazolin-3-yl)-Piperidine-2,6-Dione]",308 to 310 °C
13,"Cc1cccc2nc(-c3ccccc3)n(C3CCC(=O)NC3=O)c(=O)c12 (centres unmarked) [Example 6.16, 3-(5-Methyl-4-Oxo-2-Phenyl-4H-Quinazolin-3-yl)-Piperidine-2,6-Dione]",298 to 300 °C
14,"Cc1nc2cccc(N)c2c(=O)n1[C@]1(C)CCC(=O)NC1=O [Example 6.19, (R)-3-(5-Amino-2-Methyl-4-Oxoquinazolin-3(4H)-yl)-3-Methylpiperidine-2,6-Dione]",295 to 297 °C
15,"COCC(=O)Nc1cccc2nc(C)n(C3CCC(=O)NC3=O)c(=O)c12 (centres unmarked) [Example 6.20, N-[3-(2,6-Dioxo-Piperidin-3-yl)-2-Methyl-4-Oxo-3,4-Dihydro-Quinazolin-5-yl]-2-Methoxy-Acetamide]",282 to 284 °C
16,"CC(=O)Nc1cccc2nc(C)n(C3CCC(=O)NC3=O)c(=O)c12 (centres unmarked) [Example 6.21, N-[3-(2,6-Dioxo-Piperidin-3-yl)-2-Methyl-4-Oxo-3,4-Dihydro-Quinazolin-5-yl]-Acetamide]",320 to 322 °C
17,"CCCCCCC(=O)Nc1cccc2nc(C)n(C3CCC(=O)NC3=O)c(=O)c12 (centres unmarked) [Example 6.23, Heptanoic Acid [3-(2,6-Dioxo-Piperidin-3-yl)-2-Methyl-4-Oxo-3,4-Dihydro-Quinazolin-5-yl]-Amide]",230 to 232 °C
18,"CCOCC(=O)Nc1cccc2nc(C)n(C3CCC(=O)NC3=O)c(=O)c12 (centres unmarked) [Example 6.24, N-[3-(2,6-Dioxo-Piperidin-3-yl)-2-Methyl-4-Oxo-3,4-Dihydro-Quinazolin-5-yl]-2-Ethoxy-Acetamide]",291 to 293 °C

# From patent US8921385B2, “5-substituted quinazolinone derivatives and compositions comprising and methods of using the same” (Celgene Corporation, priority 2006, dated 2014)
